Measurements published in ChEMBL document CHEMBL4602617, “Discovery and optimization of heteroaryl piperazines as potent and selective PI3Kδ inhibitors” (Bioorg Med Chem Lett, 2020).

Assays:
[1] = Unbound clearance in rat at 0.5 mg/kg, iv or 1 mg/kg, po; assay type: ADME, organism-based; details: in vivo
[2] = Half life in dog at 0.5 mg/kg, iv 1 mg/kg, po; assay type: ADME, organism-based, Canis lupus familiaris; details: in vivo
[3] = molecular target: Nuclear receptor subfamily 1 group I member 2 (Homo sapiens, UniProt O75469); assay: Inhibition of PXR (unknown origin)
[4] = molecular target: Voltage-gated inwardly rectifying potassium channel KCNH2 (Homo sapiens, UniProt Q12809); assay: Inhibition of human ERG
[5] = molecular target: Cytoplasmic tyrosine-protein kinase BMX (Homo sapiens, UniProt P51813); assay: Inhibition of recombinant full length human His-tagged BMX cytoplasmic domain expressed in baculovirus expression system using tyrosine-1 peptide as substrate incubated for 60 mins in presence of ATP by Z'-LYTE assay
[6] = molecular target: RAC-beta serine/threonine-protein kinase (Homo sapiens, UniProt P31751); assay: Inhibition of recombinant full length human His-tagged AKT2 expressed in baculovirus expression system using Ser/Thr-06 peptide as substrate incubated for 60 mins in presence of ATP by Z'-LYTE assay
[7] = molecular target: Tyrosine-protein kinase ABL1 (Homo sapiens, UniProt P00519, E255K); assay: Inhibition of recombinant full length human His-tagged ABL1 E255K mutant cytoplasmic domain expressed in baculovirus expression system using tyrosine-2 peptide as substrate incubated for 60 mins in presence of ATP by Z'-LYTE assay
[8] = molecular target: Glycogen synthase kinase-3 beta (Homo sapiens, UniProt P49841); assay: Inhibition of recombinant full length human His-tagged GSK3beta expressed in baculovirus expression system using serine/threonine-9 peptide as substrate incubated for 60 mins in presence of ATP by Z'-LYTE assay
[9] = molecular target: Mitogen-activated protein kinase kinase kinase kinase 4 (Homo sapiens, UniProt O95819); assay: Inhibition of recombinant GST-tagged human MAP4K4 catalytic domain expressed in baculovirus expression system using Ser/Thr 07 peptide as substrate after 1 hr in presence of ATP by Z'-LYTE assay
[10] = molecular target: Prostaglandin F2-alpha receptor (Homo sapiens) (UniProt P43088); assay: Displacement of [3H]PGF2alpha from full length human recombinant prostanoid FP receptor expressed in HEK293 cells at 10 uM measured after 60 mins by radiometric scintillation analysis relative to control; assay type: cell-based
Rattus norvegicus = species on record: Rattus norvegicus; assay: Displacement of [3H]TBOB from GABAA chloride channel receptor in Wistar rat whole brain membranes at 10 uM measured after 120 mins by radiometric scintillation analysis relative to control; assay type: cell membranes; details: Membrane
[11] = molecular target: Phosphodiesterase 3 (Homo sapiens) (UniProt Q14432+Q13370); assay: Inhibition of human platelet PDE3 at 10 uM using cAMP as substrate after 20 mins in presence of [3H]cAMP by radiometric scintillation assay relative to control
Caspase-8 (Homo sapiens) = Caspase-8 (Homo sapiens) (UniProt Q14790); assay: Inhibition of recombinant human caspase 8 (217 to end residues) expressed in Escherichia coli at 10 uM using Ac-IETD-AMC as substrate after 60 mins by spectrophotometric analysis relative to control
[12] = molecular target: Death-associated protein kinase 1 (Homo sapiens, UniProt P53355); assay: Inhibition of recombinant human GST-tagged DAPK1 catalytic domain (1 to 363 residues) expressed in baculovirus expression system using ZIPtide peptide as substrate incubated for 60 mins in presence of ATP by Adapta assay
[13] = molecular target: Death-associated protein kinase 3 (Homo sapiens, UniProt O43293); assay: Inhibition of recombinant human full-length GST-tagged DAPK3 expressed in baculovirus expression system using FRET-labeled Ser/Thr 13 peptide as substrate measured after 1 hr in presence of ATP by Z'-lyte assay
Ephrin type-A receptor 3 = Ephrin type-A receptor 3 (Homo sapiens, UniProt P29320); assay: Inhibition of tracer 236 binding to recombinant human His-tagged EPHA3 (569 to 976 residues) expressed in baculovirus expression system measured after 60 mins in presence of ATP by Lanthascreen assay
Ephrin type-B receptor 2 = Ephrin type-B receptor 2 (Homo sapiens, UniProt P29323); assay: Inhibition of recombinant human GST-tagged EPHB2 catalytic domain (616 to 884 residues) expressed in baculovirus expression system using tyrosine-2 peptide as substrate incubated for 60 mins in presence of ATP by Z'-LYTE assay
[14] = molecular target: Fibroblast growth factor receptor 3 (Homo sapiens, UniProt P22607, K650E); assay: Inhibition of recombinant N-terminal His-tagged human FGFR3 K650E mutant (398 to 806 residues) cytoplasmic domain expressed in baculovirus expression system using Tyr 04 peptide as substrate after 1 hr in presence of ATP by Z'-LYTE assay
[15] = molecular target: Tyrosine-protein kinase Lyn (Homo sapiens, UniProt P07948); assay: Inhibition of recombinant full length human His-tagged LYN-A expressed in baculovirus expression system using tyrosine-2 peptide as substrate incubated for 60 mins in presence of ATP by Z'-LYTE assay
[16] = molecular target: Dual specificity mitogen-activated protein kinase kinase 2 (Homo sapiens, UniProt P36507); assay: Inhibition of recombinant full length human His-tagged MEK2 expressed in baculovirus expression system using serine/threonine-3 peptide as substrate incubated for 60 mins in presence of ATP by Z'-LYTE assay
[17] = molecular target: Mitogen-activated protein kinase kinase kinase kinase 2 (Homo sapiens, UniProt Q12851); assay: Inhibition of recombinant full length human HIs-tagged MAP4K2 expressed in baculovirus expression system using serine/threonine-7 peptide as substrate incubated for 60 mins in presence of ATP by Z'-LYTE assay
[18] = molecular target: Tyrosine-protein kinase Mer (Homo sapiens, UniProt Q12866); assay: Inhibition of recombinant human GST-tagged MER (578 to 872 residues) expressed in baculovirus expression system using tyrosine-2 peptide as substrate incubated for 60 mins in presence of ATP by Z'-LYTE assay
[19] = molecular target: cGMP-dependent protein kinase 2 (Homo sapiens, UniProt Q13237); assay: Inhibition of recombinant full length GST-tagged human PKG2 expressed in baculovirus expression system using Ser/Thr 01 as substrate after 1 hr in presence of ATP by Z'-LYTE assay
[20] = molecular target: Serine/threonine-protein kinase D3 (Homo sapiens, UniProt O94806); assay: Inhibition of recombinant full length human GST-tagged PKD3 expressed in baculovirus expression system using serine/threonine-17 peptide as substrate incubated for 60 mins in presence of ATP by Z'-LYTE assay
SRSF protein kinase 1 = SRSF protein kinase 1 (Homo sapiens, UniProt Q96SB4); assay: Inhibition of recombinant full length human His-tagged SRPK1 expressed in baculovirus expression system using serine/threonine-18 peptide as substrate incubated for 60 mins in presence of ATP by Z'-LYTE assay
[21] = molecular target: Serine/threonine-protein kinase 24 (Homo sapiens, UniProt Q9Y6E0); assay: Inhibition of recombinant full length human GST-tagged MST3 expressed in baculovirus expression system using serine/threonine-7 peptide as substrate incubated for 60 mins in presence of ATP by Z'-LYTE assay

Ephrin type-B receptor 2, sequence (P29323 whole entry, the tested form may be a part): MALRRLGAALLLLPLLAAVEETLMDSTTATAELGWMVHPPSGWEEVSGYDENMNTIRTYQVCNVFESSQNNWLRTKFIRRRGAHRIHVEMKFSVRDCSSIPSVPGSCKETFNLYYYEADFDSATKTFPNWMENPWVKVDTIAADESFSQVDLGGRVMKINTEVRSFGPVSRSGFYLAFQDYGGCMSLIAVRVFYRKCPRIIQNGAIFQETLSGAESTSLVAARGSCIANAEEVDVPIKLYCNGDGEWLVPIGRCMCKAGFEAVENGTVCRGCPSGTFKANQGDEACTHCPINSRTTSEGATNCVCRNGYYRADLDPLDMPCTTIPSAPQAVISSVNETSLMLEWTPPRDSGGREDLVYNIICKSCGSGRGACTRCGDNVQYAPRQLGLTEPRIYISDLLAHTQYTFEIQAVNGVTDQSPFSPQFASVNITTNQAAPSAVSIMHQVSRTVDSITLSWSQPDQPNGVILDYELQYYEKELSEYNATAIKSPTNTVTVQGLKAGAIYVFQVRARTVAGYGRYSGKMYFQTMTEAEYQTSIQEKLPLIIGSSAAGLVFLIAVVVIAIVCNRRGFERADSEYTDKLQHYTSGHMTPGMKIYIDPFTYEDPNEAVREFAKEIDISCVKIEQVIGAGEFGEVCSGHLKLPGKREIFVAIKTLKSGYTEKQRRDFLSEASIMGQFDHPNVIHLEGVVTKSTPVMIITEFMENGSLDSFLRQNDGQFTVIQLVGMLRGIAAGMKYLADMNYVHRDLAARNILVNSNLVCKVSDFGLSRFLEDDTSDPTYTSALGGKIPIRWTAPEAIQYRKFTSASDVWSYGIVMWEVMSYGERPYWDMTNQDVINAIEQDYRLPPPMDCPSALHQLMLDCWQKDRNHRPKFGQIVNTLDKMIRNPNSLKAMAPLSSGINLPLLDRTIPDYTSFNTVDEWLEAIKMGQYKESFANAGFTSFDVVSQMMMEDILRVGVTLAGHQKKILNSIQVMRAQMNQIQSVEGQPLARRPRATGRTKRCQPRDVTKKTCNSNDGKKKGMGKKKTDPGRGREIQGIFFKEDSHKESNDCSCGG
Caspase-8 (Homo sapiens), sequence (Q14790 217-374 limits assumed): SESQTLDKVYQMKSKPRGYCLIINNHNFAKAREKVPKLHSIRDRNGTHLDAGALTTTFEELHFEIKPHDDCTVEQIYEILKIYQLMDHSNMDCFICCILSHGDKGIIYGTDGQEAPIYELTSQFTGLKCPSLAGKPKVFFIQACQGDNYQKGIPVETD
Caspase-8 (Homo sapiens), sequence (Q14790 385-479 limits assumed): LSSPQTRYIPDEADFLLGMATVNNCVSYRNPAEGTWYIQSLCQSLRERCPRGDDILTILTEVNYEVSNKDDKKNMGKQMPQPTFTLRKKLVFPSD
Mitogen-activated protein kinase kinase kinase kinase 2, sequence (Q12851 whole entry, the tested form may be a part): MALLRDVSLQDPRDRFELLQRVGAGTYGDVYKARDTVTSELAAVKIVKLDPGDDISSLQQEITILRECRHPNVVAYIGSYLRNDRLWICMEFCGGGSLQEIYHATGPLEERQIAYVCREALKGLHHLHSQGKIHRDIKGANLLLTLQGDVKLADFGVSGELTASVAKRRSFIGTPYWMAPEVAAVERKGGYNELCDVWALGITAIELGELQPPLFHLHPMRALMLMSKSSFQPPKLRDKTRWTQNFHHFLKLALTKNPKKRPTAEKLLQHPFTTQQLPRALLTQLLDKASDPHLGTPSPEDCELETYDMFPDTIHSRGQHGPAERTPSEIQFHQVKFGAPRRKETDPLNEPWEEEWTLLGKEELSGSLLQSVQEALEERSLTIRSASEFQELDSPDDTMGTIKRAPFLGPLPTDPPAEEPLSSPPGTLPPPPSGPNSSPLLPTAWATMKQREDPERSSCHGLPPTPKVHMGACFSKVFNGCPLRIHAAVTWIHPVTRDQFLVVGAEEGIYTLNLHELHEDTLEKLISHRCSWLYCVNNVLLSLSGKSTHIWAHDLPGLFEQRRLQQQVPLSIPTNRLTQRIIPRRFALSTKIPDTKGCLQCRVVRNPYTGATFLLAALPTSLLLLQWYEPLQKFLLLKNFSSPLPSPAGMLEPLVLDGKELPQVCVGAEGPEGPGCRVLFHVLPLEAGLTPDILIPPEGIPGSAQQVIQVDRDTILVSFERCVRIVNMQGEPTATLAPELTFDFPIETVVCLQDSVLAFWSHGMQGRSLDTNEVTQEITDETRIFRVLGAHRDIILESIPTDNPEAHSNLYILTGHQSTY
Voltage-gated inwardly rectifying potassium channel KCNH2, sequence (Q12809 whole entry, the tested form may be a part): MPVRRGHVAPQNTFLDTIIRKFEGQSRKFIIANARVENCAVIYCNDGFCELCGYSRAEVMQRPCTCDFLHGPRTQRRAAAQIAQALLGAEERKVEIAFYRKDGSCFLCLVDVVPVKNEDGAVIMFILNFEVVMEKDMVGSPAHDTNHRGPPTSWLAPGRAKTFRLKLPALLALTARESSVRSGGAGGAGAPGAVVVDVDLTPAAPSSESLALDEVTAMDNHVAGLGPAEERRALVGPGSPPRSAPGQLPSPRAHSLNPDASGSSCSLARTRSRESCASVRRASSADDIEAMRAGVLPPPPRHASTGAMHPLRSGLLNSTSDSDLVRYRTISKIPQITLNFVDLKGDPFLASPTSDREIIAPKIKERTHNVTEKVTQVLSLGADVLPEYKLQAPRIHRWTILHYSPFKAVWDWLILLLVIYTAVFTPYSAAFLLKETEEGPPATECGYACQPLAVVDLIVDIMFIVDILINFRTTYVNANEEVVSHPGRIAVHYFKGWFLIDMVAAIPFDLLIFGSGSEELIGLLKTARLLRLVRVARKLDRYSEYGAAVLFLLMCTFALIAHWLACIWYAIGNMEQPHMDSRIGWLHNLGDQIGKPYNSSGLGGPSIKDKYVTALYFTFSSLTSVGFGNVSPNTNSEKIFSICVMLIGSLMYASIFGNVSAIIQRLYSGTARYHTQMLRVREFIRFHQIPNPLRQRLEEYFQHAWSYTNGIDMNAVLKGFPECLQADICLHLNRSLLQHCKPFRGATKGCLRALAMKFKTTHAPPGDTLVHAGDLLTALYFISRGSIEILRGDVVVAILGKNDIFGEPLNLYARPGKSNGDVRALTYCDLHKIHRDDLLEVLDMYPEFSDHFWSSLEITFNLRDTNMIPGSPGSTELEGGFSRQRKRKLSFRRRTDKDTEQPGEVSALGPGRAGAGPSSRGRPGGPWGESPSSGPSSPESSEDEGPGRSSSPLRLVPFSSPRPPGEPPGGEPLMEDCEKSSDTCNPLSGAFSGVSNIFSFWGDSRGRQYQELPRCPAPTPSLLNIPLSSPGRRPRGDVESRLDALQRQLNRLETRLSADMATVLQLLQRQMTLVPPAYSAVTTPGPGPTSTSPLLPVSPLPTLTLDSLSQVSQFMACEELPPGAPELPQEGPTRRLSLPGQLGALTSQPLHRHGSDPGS
Cytoplasmic tyrosine-protein kinase BMX, sequence (P51813 whole entry, the tested form may be a part): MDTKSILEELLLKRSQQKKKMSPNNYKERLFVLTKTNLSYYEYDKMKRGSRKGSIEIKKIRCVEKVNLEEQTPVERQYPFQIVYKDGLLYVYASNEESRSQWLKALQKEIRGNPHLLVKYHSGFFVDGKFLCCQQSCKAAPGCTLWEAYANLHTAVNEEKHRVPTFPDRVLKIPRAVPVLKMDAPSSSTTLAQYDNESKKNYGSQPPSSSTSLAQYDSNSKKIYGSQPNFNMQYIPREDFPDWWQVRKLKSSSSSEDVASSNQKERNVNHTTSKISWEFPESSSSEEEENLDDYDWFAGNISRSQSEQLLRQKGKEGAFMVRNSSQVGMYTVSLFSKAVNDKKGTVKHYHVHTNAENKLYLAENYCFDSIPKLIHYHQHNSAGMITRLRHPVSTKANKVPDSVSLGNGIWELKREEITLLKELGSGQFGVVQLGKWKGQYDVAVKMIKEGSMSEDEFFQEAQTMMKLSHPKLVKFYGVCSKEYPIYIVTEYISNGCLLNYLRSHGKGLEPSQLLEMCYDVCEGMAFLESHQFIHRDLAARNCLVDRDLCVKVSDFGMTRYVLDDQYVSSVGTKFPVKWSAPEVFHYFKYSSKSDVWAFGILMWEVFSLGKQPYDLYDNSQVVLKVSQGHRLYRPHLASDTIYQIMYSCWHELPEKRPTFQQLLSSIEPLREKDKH
Nuclear receptor subfamily 1 group I member 2, sequence (O75469 whole entry): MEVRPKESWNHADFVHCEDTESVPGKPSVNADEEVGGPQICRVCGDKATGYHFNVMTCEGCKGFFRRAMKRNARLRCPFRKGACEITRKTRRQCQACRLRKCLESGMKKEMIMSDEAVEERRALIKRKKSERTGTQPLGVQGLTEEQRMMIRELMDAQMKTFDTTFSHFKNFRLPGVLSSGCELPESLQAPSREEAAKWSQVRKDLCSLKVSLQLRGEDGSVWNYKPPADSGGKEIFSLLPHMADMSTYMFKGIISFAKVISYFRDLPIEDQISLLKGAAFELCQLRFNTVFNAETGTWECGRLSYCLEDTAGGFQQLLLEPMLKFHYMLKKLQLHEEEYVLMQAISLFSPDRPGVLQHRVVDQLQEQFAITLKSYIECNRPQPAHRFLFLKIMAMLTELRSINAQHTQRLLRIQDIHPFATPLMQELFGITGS
SRSF protein kinase 1, sequence (Q96SB4 whole entry): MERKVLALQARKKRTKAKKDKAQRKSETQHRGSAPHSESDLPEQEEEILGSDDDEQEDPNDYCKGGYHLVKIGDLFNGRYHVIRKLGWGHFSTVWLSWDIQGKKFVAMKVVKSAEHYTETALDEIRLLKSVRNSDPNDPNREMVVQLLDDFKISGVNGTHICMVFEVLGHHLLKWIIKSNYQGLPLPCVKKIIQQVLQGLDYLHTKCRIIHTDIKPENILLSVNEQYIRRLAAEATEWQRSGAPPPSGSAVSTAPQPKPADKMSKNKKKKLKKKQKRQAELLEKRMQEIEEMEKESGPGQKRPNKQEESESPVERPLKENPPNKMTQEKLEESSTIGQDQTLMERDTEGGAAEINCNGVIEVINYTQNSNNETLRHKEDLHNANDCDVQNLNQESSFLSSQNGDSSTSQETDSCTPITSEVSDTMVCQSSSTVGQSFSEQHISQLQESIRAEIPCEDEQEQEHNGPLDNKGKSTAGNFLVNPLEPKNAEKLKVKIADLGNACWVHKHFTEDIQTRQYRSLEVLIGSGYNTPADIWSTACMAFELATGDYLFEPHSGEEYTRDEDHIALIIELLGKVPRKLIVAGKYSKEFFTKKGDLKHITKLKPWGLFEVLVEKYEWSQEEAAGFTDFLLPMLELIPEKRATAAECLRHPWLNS

Work on `C[C@@H]1C[C@H]1C(=O)N1CCN(c2cnc(C#N)c(-c3cnn(C)c3)n2)C[C@H]1C` yielded a CL free [1] of 187 mL/min/kg, a half-life [2] of 174 min and an EC50 [3] greater than 30 µM. The IC50 [4] was 23 µM, the IC50 [5] was greater than 100 µM and the IC50 [6] was greater than 100 µM. The IC50 [7] was greater than 100 µM, the IC50 [8] was 28.1 µM and the IC50 [9] was 26.3 µM. For the same molecule, the inhibition [10] was 9%, the inhibition (Rattus norvegicus) was -8% and the inhibition [11] was 21%. The inhibition (Caspase-8 (Homo sapiens)) was 2%, the IC50 [12] was greater than 100 µM and the IC50 [13] was greater than 100 µM. It also gave an IC50 (Ephrin type-A receptor 3) greater than 100 µM, an IC50 (Ephrin type-B receptor 2) greater than 100 µM and an IC50 [14] greater than 100 µM. The IC50 [15] was greater than 100 µM, the IC50 [16] was greater than 100 µM and the IC50 [17] was greater than 100 µM. The IC50 [18] was greater than 100 µM, the IC50 [19] was greater than 100 µM and the IC50 [20] was greater than 100 µM. It also gave an IC50 (SRSF protein kinase 1) greater than 100 µM and an IC50 [21] greater than 100 µM.
